# Measurements published in US20080081053A1, “Treatment Method” (priority 2004, published 2008).
# System: advanced AML
# Assay: Phase 2 clinical study in patients with advanced AML
# Assay type: in vivo, human
# Details: for %myeloblasts in bone marrow: patient with HI for neutrophils, 36% at baseline
# Protocol: In a Phase 2 clinical study, 24 patients, 18 years or older, with advanced AML were treated with 12.5 mg AP23573 as a 30-minute intravenous infusion daily for 5 days every-2-weeks (QDX5, daily). The majority of patients enrolled in this trial had aggressive disease and received AP23573 study treatment as at least a 3rd line treatment regimen. Responses were assessed at the end of each cycle (4 weeks of study treatment). At the end of one cycle, two patients had Hematologic Improvement (HI), including erythroid and neutrophil minor responses. […] Six patients were stable at the end of Cycle 1 (neither response nor disease progression).
# The criteria for observed responses were as follows: • a Minor Response for erythroid HI: for patients with pre-dosing hemoglobin less than 11 g/dL, […] increase in hemoglobin; for RBC transfusion-dependnt patients, 50% decrease in transfusion requirements • a Minor Response for neutrophil HI: for ANC less than 1.5×10^9 before dosing, ANC increase of at least 100%, but absolute increase less than 1.5×10^9 • Stable Disease/no response: no significant change since baseline (neither response nor progression criteria were met) • Progressive Disease: One of the following: a 50% or greater decrement from maximum response levels in graunulocytes or platelets, a reduction in hemoglobin concentration by at least 2 g/dL, or transfusion dependence
smiles,measurement,setting,value
CO[C@H]1C[C@@H]2CC[C@@H](C)[C@@](O)(O2)C(=O)C(=O)N2CCCC[C@H]2C(=O)O[C@H]([C@H](C)C[C@@H]2CC[C@@H](OP(C)(C)=O)[C@H](OC)C2)CC(=O)[C@H](C)/C=C(\C)[C@@H](O)[C@@H](OC)C(=O)[C@H](C)C[C@H](C)/C=C/C=C/C=C/1C [AP23573],"patients with Hematologic Improvement (HI), including erythroid and neutrophil minor responses","24 patients with advanced AML, 12.5 mg, 30-minute i.v. infusion daily for 5 days every 2 weeks (QDX5), at the end of one cycle (4 weeks)",two
same,patients stable (neither response nor disease progression),"24 patients with advanced AML, end of Cycle 1, 12.5 mg i.v. QDX5",Six
same,%myeloblasts in bone marrow,"at Cycle 2, 12.5 mg i.v. QDX5",15%
same,%myeloblasts in bone marrow,"end of Cycle 1, 12.5 mg i.v. QDX5",9%
